Data set [1] relates to male Wistar rats. The data set is described as follows: Reperfusion injury after left myocardial ischemia (35 min LAD occlusion) in the rat, echocardiography. The data set is classed as in vivo. Further details: EDV (end-diastolic volume), single animals / ESV (end-systolic volume), single animals / EDV (end-diastolic volume), group mean (unlabelled last line of group) / ESV (end-systolic volume), group mean (unlabelled last line of group): unit not given here. The note with it: for EDV (end-diastolic volume), single animals / EF (ejection fraction), single animals / ESV (end-systolic volume), single animals: 60 min i.v. infusion after 35 min occlusion.

The nature of data set [2]: Maximal solubility in nonpyrogenic fluid suitable for parenteral infusion. The format is physicochemical. As to conditions: adenosine and inosine combined in a nonpyrogenic fluid suitable for parenteral infusion. The procedure:
Combined in a nonpyrogenic, fluid suitable for parenteral infusion, maximal adenosine solubility is about 4 mg/ml and that of inosine 20 mg/ml. Concentrations approaching one or both of these maxima are convenient for unit dosage forms intended for long infusion times, since high concentrations of the nucleoside actives reduce the volume required to be infused. Typical embodiments include, for example, 250 ml containers (vials, etc.) containing 1,000 mg of adenosine with 100 mg, 1,000 mg, 2,000 mg, or even 3,000 mg, 4,000 mg, 5,000 mg, even 6,000 mg of inosine, with intermediate inosine amounts permissible.

Data set [3] deals with anaesthetized rats. The data set is described as follows: Carotid blood flow (CaBF) in anaesthetized rats, continuous i.v. infusion. The format is in vivo, rat. The procedure:
The study was conducted on 7 week old male Wistar rats weighing 250-300 g. Rats were anaesthetized with Inactin 100 mg/kg i.p. Inactin was preferred to other anaesthetics because of its moderate impact on blood pressure. Heparin-filled (100 IU/ml in saline) catheters were introduced into the left common carotid artery and into the left jugular vein for measurement of blood pressure and drug administration respectively. A flow probe was inserted around the right carotid artery for measurement of carotid blood flow (CaBF).
In a first series of experiments, adenosine was administered as a single agent to identify the dose providing maximal increase in carotid arterial blood flow (“adenosine max”). In this experiment, various concentrations of adenosine were infused continuously through the jugular vein catheter for 5 minutes, with concurrent measurement of carotid arterial blood flow.
A second series of experiments was performed to assess whether inosine could potentiate the effects on CaBF of a continuous intravenous infusion of adenosine at half adenosine max.
In each experiment, the effect on CaBF of (i) adenosine as a single agent, infused continuously for five minutes at adenosine max (0.1 mg/kg/min), (ii) adenosine as single agent infused continuously for five minutes at half adenosine max (0.05 mg/kg/min), and (iii) a composition containing a fixed dose of adenosine at half adenosine max (0.05 mg/kg/min) combined with inosine infused continuously for five minutes, was assessed. In separate experiments, inosine was included in the combined (“BIDOSINE”) composition in amounts required to achieve infusion at 0.1 mg/kg/min (A:I weight ratio of 1:2, FIG. 2A), 0.15 mg/kg/min (A:I weight ratio of 1:3, FIG. 2B), 0.2 mg/kg/min (A:I weight ratio of 1:4, FIG. 2C), and 0.25 mg/kg/min (A:I weight ratio of 1:5, FIG. 2D).

Usually solubility stands for the dissolved amount per volume that the medium holds.

Molecules are shown by their SMILES. Several values for one entry are separate records, joined by “and”; a condition that tells them apart may be missing. Identical values can stand only once.

With `Nc1ncnc2c1ncn2[C@@H]1O[C@H](CO)[C@@H](O)[C@H]1O` [adenosine], in data set [1] (Post-operative day 2), the “EDV (end-diastolic volume), group mean (unlabelled last line of group)” value was 0.40; the “EF (ejection fraction), group mean (unlabelled last line of group)” value turned out to be 0.60; the “ESV (end-systolic volume), group mean (unlabelled last line of group)” value is reported as 0.16; the “EDV (end-diastolic volume), single animals” value was 0.41 and 0.35 and 0.37 and 0.48. In data set [1] (Post-operative day 2), the “EF (ejection fraction), single animals” value was 0.67 and 0.64 and 0.60 and 0.49; the “ESV (end-systolic volume), single animals” value was 0.14 and 0.13 and 0.15 and 0.24. In data set [1] (Post-operative day 30), the “EDV (end-diastolic volume), group mean (unlabelled last line of group)” value turned out to be 0.38; the “EF (ejection fraction), group mean (unlabelled last line of group)” value came out at 0.59; the “ESV (end-systolic volume), group mean (unlabelled last line of group)” value is reported as 0.20; the “EDV (end-diastolic volume), single animals” value is 0.44 and 0.42 and 0.33 and 0.36. Moreover, in data set [1] (Post-operative day 30), the “EF (ejection fraction), single animals” value is 0.61 and 0.32 and 0.65 and 0.44; the “ESV (end-systolic volume), single animals” value was 0.17 and 0.29 and 0.12 and 0.20. For the same compound, the ejection fraction in data set [1] (day 30, adenosine 0.1 mg/kg/min or adenosine 0.05 + inosine 0.25 mg/kg/min) is given as 59%. The solubility in data set [2] was approximately 4000 µg/mL. In addition, the “adenosine dose providing maximal CaBF as a single agent (adenosine max)” value in data set [3] (5 min continuous i.v. infusion, 0.01-1 mg/kg/min tested) is reported as 0.1 mg/kg/min. In addition, the “increase in CaBF, percentage variation from baseline” value in data set [3] (6 min continuous i.v. infusion, adenosine 0.05 mg/kg/min, inosine 0.2 mg/kg/min, alone or combined (A:I 1:4), Mean±SEM, n=6) worked out at 7±4%.

Source of the values: patent publication US20080056993A1, “Compositions, Methods and Kits Using Adenosine and Inosine in Combination for Diagnosis and Treatment” (ADENOBIO N.V., priority 2006, published 2008).
